# According to US20240402182A1, “PEPTIDE TARGETING FUSOBACTERIA, COMPOSITION FOR DIAGNOSING CANCER COMPRISING SAME, AND DRUG DELIVERY COMPOSITION” (INDUSTRY-ACADEMIC COOPERATION FOUNDATION, YONSEI UNIVERSITY, priority 2021, published 2024):
# System: mixture of 9 types of Fusobacteria
# Experiment: ELISA binding affinity of selected M13 bacteriophage clones to Fusobacteria (FIG. 4D)
# Set-up: species or system Fusobacterium nucleatum
# Details: M13 bacteriophage displaying the peptide, plate coated with Fusobacteria, M13-HRP antibody, TMB, absorbance at OD450
# Procedure: A mixture of 9 types of Fusobacteria or each of the 9 types of Fusobacteria was coated on a plate, and a blocking reaction was performed using a 5% BSA solution to prevent non-specific binding. Each selected M13 bacteriophage was reacted on the plate coated with Fusobacteria. The plate was washed three times with phosphate buffer solution containing 0.1% Tween 20, and then reacted with an M13-HRP antibody. The reaction plate was washed three times with phosphate buffer solution containing 0.1% Tween 20 and reacted using a TMB color solution. The reaction was stopped with 1 M sulfuric acid (H2SO4), and the absorbance was measured at OD450 to compare the binding affinity.
substance,measurement,value
PPWLADI [SEQ ID NO: 81],binding affinity to Fusobacteria (ELISA),highest binding affinity
